{"source": "ChEMBL document CHEMBL5346899", "about": "“PKM2/PDK1 dual-targeted shikonin derivatives restore the sensitivity of EGFR-mutated NSCLC cells to gefitinib by remodeling glucose metabolism” (Eur J Med Chem, 2023)", "key": {"[1]": {"test_system": "NCI-H1975", "assay": "Induction of apoptosis in human NCI-H1975 cells assessed as regulation of cleaved Caspase-3 expression by Western blot analysis", "format": "functional, cell-based"}, "[2]": {"test_system": "NCI-H1975", "assay": "Induction of apoptosis in human NCI-H1975 cells assessed as dead cells at 0.5 micromol/L incubated for 24 hrs by Annexin V-FITC/PI staining based analysis (reference value: 0.103%)", "format": "functional", "conditions": "dose 0.5 µmol/L, at 0.5 µM"}, "[3]": {"test_system": "HCC827", "assay": "Induction of apoptosis in human HCC827 cells assessed as early apoptotic cells at 2 micromol/L incubated for 24 hrs by Annexin V-FITC/PI staining based analysis (reference value: 9.14%)", "format": "functional", "conditions": "dose 2 µmol/L, at 2 µM"}, "[4]": {"target": "T1, [Pyruvate dehydrogenase (acetyl-transferring)] kinase isozyme 1, mitochondrial (Homo sapiens, UniProt Q15118)", "T1 sequence (Q15118 whole entry)": "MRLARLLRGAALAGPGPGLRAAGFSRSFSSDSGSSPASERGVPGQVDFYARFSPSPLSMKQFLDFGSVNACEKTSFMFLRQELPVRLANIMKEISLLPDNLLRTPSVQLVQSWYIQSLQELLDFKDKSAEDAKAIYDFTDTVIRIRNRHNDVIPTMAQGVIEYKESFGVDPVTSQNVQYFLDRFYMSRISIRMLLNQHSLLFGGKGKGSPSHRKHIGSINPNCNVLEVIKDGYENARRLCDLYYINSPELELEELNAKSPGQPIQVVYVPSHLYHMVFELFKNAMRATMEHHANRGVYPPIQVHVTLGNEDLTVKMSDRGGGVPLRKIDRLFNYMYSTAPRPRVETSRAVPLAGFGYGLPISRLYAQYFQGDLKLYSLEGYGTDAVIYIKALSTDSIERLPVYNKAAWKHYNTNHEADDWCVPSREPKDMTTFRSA", "assay": "Inhibition of PDK1 in human HCC827 cells at 1 to 2 micromol/L by Western blot analysis", "format": "cell-based", "conditions": "dose 1-2 µmol/L"}, "[5]": {"test_system": "NCI-H1975", "assay": "Induction of mitochondrial transmembrane potential dissipation in human NCI-H1975 cells assessed as cells with low mitochondrial transmembrane potential at 0.5 micromol/L by FL-1/FL-2 channel based fluorescence analysis (reference value: 2.13%)", "format": "functional", "conditions": "dose 0.5 µmol/L; at 0.5 µM"}, "[6]": {"target": "T1, [Pyruvate dehydrogenase (acetyl-transferring)] kinase isozyme 1, mitochondrial", "assay": "Inhibition of PDK1 in human NCI-H1975 cells at 1 to 2 micromol/L by Western blot analysis", "format": "cell-based", "conditions": "dose 1-2 µmol/L"}, "[7]": {"test_system": "A549", "assay": "Induction of apoptosis in human A549 cells assessed as late apoptotic cells at 2 micromol/L incubated for 24 hrs by Annexin V-FITC/PI staining based analysis (reference value: 3.18%)", "format": "functional", "conditions": "dose 2 µmol/L, at 2 µM"}, "[8]": {"test_system": "NCI-H1975", "assay": "Inhibition of glycolysis in human NCI-H1975 cells assessed as reduction in glucose consumption incubated for 24 hrs by colorimetric assay", "format": "functional, cell-based"}, "[9]": {"test_system": "NCI-H1975", "assay": "Induction of apoptosis in human NCI-H1975 cells assessed as regulation of PARP expression by Western blot analysis", "format": "functional, cell-based"}, "[10]": {"test_system": "NCI-H1975", "assay": "Induction of apoptosis in human NCI-H1975 cells assessed as live cells at 0.5 micromol/L incubated for 24 hrs by Annexin V-FITC/PI staining based analysis (reference value: 88.7%)", "format": "functional", "conditions": "dose 0.5 µmol/L, at 0.5 µM"}, "[11]": {"test_system": "NCI-H1975", "assay": "Induction of apoptosis in human NCI-H1975 cells with siRNA mediated […] knockdown assessed as late apoptotic cells at 1 micromol/L incubated for 24 hrs by Annexin V-FITC/PI staining based analysis (reference value: 6.25%)", "format": "functional", "conditions": "dose 1 µmol/L, at 1 µM"}, "[12]": {"target": "T2, Pyruvate kinase PKM (Homo sapiens, UniProt P14618)", "T2 sequence (P14618 2-531 limits assumed)": "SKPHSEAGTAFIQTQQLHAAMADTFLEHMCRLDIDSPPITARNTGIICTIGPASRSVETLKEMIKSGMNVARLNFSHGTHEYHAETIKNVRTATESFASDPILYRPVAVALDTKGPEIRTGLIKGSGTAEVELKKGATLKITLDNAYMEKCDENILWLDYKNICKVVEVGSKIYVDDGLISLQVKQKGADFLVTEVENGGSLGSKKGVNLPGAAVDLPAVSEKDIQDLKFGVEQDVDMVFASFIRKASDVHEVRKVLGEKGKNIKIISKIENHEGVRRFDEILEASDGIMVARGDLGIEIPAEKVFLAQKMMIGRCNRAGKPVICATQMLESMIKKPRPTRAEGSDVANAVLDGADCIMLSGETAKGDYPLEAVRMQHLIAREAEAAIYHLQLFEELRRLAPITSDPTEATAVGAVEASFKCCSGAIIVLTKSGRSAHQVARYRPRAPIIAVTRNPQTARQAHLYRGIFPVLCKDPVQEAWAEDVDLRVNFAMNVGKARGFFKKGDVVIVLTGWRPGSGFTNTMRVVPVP", "assay": "Activation of PKM2 in siRNA mediated PKM2 knockdown human NCI-H1975 cells at 1 to 2 micromol/L by Western blot analysis", "format": "cell-based", "conditions": "dose 1-2 µmol/L"}, "[13]": {"test_system": "NCI-H1975", "assay": "Inhibition of NADPH production in human NCI-H1975 cells incubated for 2 hrs by NADP+/NADPH assay", "format": "functional, cell-based"}, "[14]": {"test_system": "NCI-H1975", "assay": "Induction of mitochondrial transmembrane potential dissipation in human NCI-H1975 cells assessed as cells with high mitochondrial transmembrane potential at 1 micromol/L by FL-1/FL-2 channel based fluorescence analysis (reference value: 97.4%)", "format": "functional", "conditions": "dose 1 µmol/L; at 1 µM"}, "[15]": {"test_system": "NCI-H1975", "assay": "Induction of oxidative phosphorylation in human NCI-H1975 cells assessed as increase in ATP production by luminescence based assay", "format": "functional, cell-based"}, "[16]": {"test_system": "HCC827", "assay": "Antiproliferative activity against human HCC827 cells assessed as reduction in clone size", "format": "functional, cell-based"}, "[17]": {"test_system": "NCI-H1975", "assay": "Induction of apoptosis in human NCI-H1975 cells assessed as early apoptotic cells at 1 micromol/L incubated for 24 hrs by Annexin V-FITC/PI staining based analysis (reference value: 1.88%)", "format": "functional", "conditions": "dose 1 µmol/L, at 1 µM"}, "[18]": {"test_system": "NCI-H1975", "assay": "Induction of apoptosis in human NCI-H1975 cells transfected with siRNA assessed as early apoptotic cells at 2 micromol/L incubated for 24 hrs by Annexin V-FITC/PI staining based analysis (reference value: 1.16%)", "format": "functional", "conditions": "dose 2 µmol/L, at 2 µM"}, "[19]": {"test_system": "A549", "assay": "Induction of apoptosis in human A549 cells assessed as early apoptotic cells at 1 micromol/L incubated for 24 hrs by Annexin V-FITC/PI staining based analysis (reference value: […]%)", "format": "functional", "conditions": "dose 1 µmol/L"}, "[20]": {"test_system": "A549", "assay": "Induction of intracellular ROS accumulation in human A549 cells", "format": "functional, cell-based"}, "[21]": {"test_system": "NCI-H1975", "assay": "Induction of apoptosis in human NCI-H1975 cells assessed as regulation of cytochrome c expression by Western blot analysis", "format": "functional, cell-based"}, "[22]": {"test_system": "NCI-H1975", "assay": "Induction of apoptosis in human NCI-H1975 cells assessed as regulation of cleaved Caspase-9 expression by Western blot analysis", "format": "functional, cell-based"}, "[23]": {"test_system": "NCI-H1975", "assay": "Antiproliferative activity against human NCI-H1975 cells assessed as inhibition of clone formation rate", "format": "functional, cell-based"}, "[24]": {"test_system": "NCI-H1975", "assay": "Induction of intracellular ROS accumulation in human NCI-H1975 cells", "format": "functional, cell-based"}, "[25]": {"test_system": "NCI-H1299", "assay": "cells", "format": "functional, cell-based", "conditions": "Homo sapiens, NCI-H1299, 24 h", "description": "Antiproliferative activity against human NCI-H1299 cells assessed as inhibition of cell growth incubated for 24 hrs by CCK-8 assay"}, "[26]": {"test_system": "NCI-H1975", "assay": "Upregulation of PDH protein expression in human NCI-H1975 cells at 1 to 2 micromol/L by Western blot analysis", "format": "functional, cell-based", "conditions": "dose 1-2 µmol/L"}, "[27]": {"test_system": "NCI-H1975", "assay": "Induction of apoptosis in human NCI-H1975 cells transfected with siRNA assessed as early apoptotic cells at 1 micromol/L incubated for 24 hrs by Annexin V-FITC/PI staining based analysis (reference value: 1.16%)", "format": "functional", "conditions": "dose 1 µmol/L, at 1 µM"}, "[28]": {"assay": "Acute toxicity in ICR mouse assessed as reduction in animal survival rate at 2.4 to 38.4 mg/kg, ip administered once for 14 days and measured every day", "format": "organism-based", "conditions": "in vivo, 336 h, dose 2.4-38.4 mg/kg, time 14 day"}, "[29]": {"test_system": "NCI-H1975", "assay": "Induction of apoptosis in human NCI-H1975 cells assessed as late apoptotic cells at 10 micromol/L incubated for 24 hrs by Annexin V-FITC/PI staining based analysis (reference value: 8.61%)", "format": "functional", "conditions": "dose 10 µmol/L, at 10 µM"}, "[30]": {"test_system": "NCI-H1299", "assay": "Induction of intracellular ROS accumulation in human NCI-H1299 cells", "format": "functional, cell-based"}, "[31]": {"target": "T1, [Pyruvate dehydrogenase (acetyl-transferring)] kinase isozyme 1, mitochondrial", "assay": "Binding affinity to PDK1 (unknown origin) assessed as dissociation constant associated for 60 secs and dissociated for 90 secs by bio-layer interferometry analysis"}, "[32]": {"target": "T2, Pyruvate kinase PKM", "assay": "Activation of PKM2 in human HCC827 cells at 1 to 2 micromol/L by Western blot analysis", "format": "cell-based", "conditions": "filed as activator, dose 1-2 µmol/L"}, "[33]": {"test_system": "NCI-H1975", "assay": "Effect on PKM2 protein expression in human NCI-H1975 cells at 1 to 2 micromol/L by Western blot analysis", "format": "functional, cell-based", "conditions": "dose 1-2 µmol/L"}, "[34]": {"test_system": "NCI-H1975", "assay": "Induction of apoptosis in human NCI-H1975 cells assessed as regulation of Caspase-9 expression by Western blot analysis", "format": "functional, cell-based"}, "[35]": {"test_system": "NCI-H1975", "assay": "Induction of apoptosis in human NCI-H1975 cells assessed as late apoptotic cells at 0.5 micromol/L incubated for 24 hrs in presence of gefitinib by Annexin V-FITC/PI staining based analysis (reference value: 8.61%)", "format": "functional", "conditions": "dose 0.5 µmol/L, at 0.5 µM"}, "[36]": {"test_system": "HCC827", "assay": "Induction of apoptosis in human HCC827 cells assessed as late apoptotic cells at 2 micromol/L incubated for 24 hrs by Annexin V-FITC/PI staining based analysis (reference value: 8.42%)", "format": "functional", "conditions": "dose 2 µmol/L, at 2 µM"}, "[37]": {"test_system": "NCI-H1975", "assay": "Induction of mitochondrial transmembrane potential dissipation in human NCI-H1975 cells assessed as cells with high mitochondrial transmembrane potential at 0.5 micromol/L by FL-1/FL-2 channel based fluorescence analysis (reference value: 97.4%)", "format": "functional", "conditions": "dose 0.5 µmol/L; at 0.5 µM"}}, "note": "Activity calls are given as the source filed them. The rule behind the calls is not given here.", "data": [{"molecule": "COC(=O)[C@H](CS[C@H](CC=C(C)C)C1=CC(=O)c2c(O)ccc(O)c2C1=O)NC(=O)CCCC[C@@H]1CCSC(c2ccccc2C)S1", "note": "(some centres not stated)", "values": [{"measurement": "Activity", "setting": "[1]", "value": "Active"}, {"measurement": "Activity", "setting": "[2]", "value": 0, "unit": "%"}, {"measurement": "Activity", "setting": "[3]", "value": 29.4, "unit": "%"}, {"measurement": "inhibition", "setting": "[4]", "value": "Active"}, {"measurement": "Activity", "setting": "[5]", "value": 11.8, "unit": "%"}, {"measurement": "inhibition", "setting": "[6]", "value": "Active"}, {"measurement": "Activity", "setting": "[7]", "value": 6.46, "unit": "%"}, {"measurement": "inhibition", "setting": "[8]", "value": "Active"}, {"measurement": "Activity", "setting": "[9]", "value": "Active"}, {"measurement": "Activity", "setting": "[10]", "value": 87.3, "unit": "%"}, {"measurement": "Activity", "setting": "[11]", "value": 4.95, "unit": "%"}, {"measurement": "Activity", "setting": "[12]", "value": "inactive"}, {"measurement": "inhibition", "setting": "[13]", "value": "Active"}, {"measurement": "Activity", "setting": "[14]", "value": 62.2, "unit": "%"}, {"measurement": "Activity", "setting": "[15]", "value": "Active"}, {"measurement": "Activity", "setting": "[16]", "value": "Dose-Dependent Effect"}, {"measurement": "Activity", "setting": "[17]", "value": 3.84, "unit": "%"}, {"measurement": "Activity", "setting": "[18]", "value": 8.24, "unit": "%"}, {"measurement": "Activity", "setting": "[19]", "value": 8.74, "unit": "%"}, {"measurement": "Activity", "setting": "[20]", "value": "Active"}, {"measurement": "Activity", "setting": "[21]", "value": "Active"}, {"measurement": "Activity", "setting": "[22]", "value": "Active"}, {"measurement": "Activity", "setting": "[23]", "value": "Dose-Dependent Effect"}, {"measurement": "Activity", "setting": "[24]", "value": "Active"}, {"measurement": "IC50", "setting": "[25]", "value": 5.48, "unit": "µM"}, {"measurement": "Activity", "setting": "[26]", "value": "Active"}, {"measurement": "Activity", "setting": "[27]", "value": 3.44, "unit": "%"}, {"measurement": "Activity", "setting": "[28]", "value": "Non-Toxic"}, {"measurement": "Activity", "setting": "[29]", "value": 9.56, "unit": "%"}, {"measurement": "Activity", "setting": "[30]", "value": "Active"}, {"measurement": "Kd", "setting": "[31]", "value": 12.1, "unit": "µM"}, {"measurement": "Activity", "setting": "[32]", "value": "Active"}, {"measurement": "Activity", "setting": "[33]", "value": "inactive"}, {"measurement": "Activity", "setting": "[34]", "value": "Active"}, {"measurement": "Activity", "setting": "[35]", "value": 25, "unit": "%"}, {"measurement": "Activity", "setting": "[36]", "value": 41.1, "unit": "%"}, {"measurement": "Activity", "setting": "[37]", "value": 88.1, "unit": "%"}]}]}
